# Test results reported in US7132540B1, “Hindered spiro-ketal nitroxides” (Nova Molecular Technologies Inc., priority 2001, dated 2006).
# Legend:
# [1] = Polymerization of acrylonitrile at 70° C. with benzoyl peroxide in the presence of nitroxide inhibitors; details: acrylonitrile 10 ml, benzoyl peroxide 0.35 g, inhibitor 0.1 g (0.1 ml for 6), water bath 70° C.
# Method: (§1) Testing was done to determine the effectiveness of various nitroxides in inhibiting the polymerization of various vinyl monomers.
# (§2) A sample of vinyl monomer (10 ml) was placed in an open 25 ml test tube. To each tube benzoyl peroxide (0.35 g) and 0.1 g of nitroxide inhibitor was added, then the tubes were placed in a water bath maintained by a thermostat at 70° C. The selected vinyl monomers polymerize under these conditions without nitroxide inhibitors within a few minutes.
# (§3) Vinyl monomers: acrylonitrile, vinyl acetate and methyl acrylate.
# Polymerization of Acrylonitrile at 70° C. in the presence of Nitroxide Inhibitors.
# [2] = Polymerization of vinyl acetate at 70° C. with benzoyl peroxide in the presence of nitroxide inhibitors; details: vinyl acetate 10 ml, benzoyl peroxide 0.35 g, inhibitor 0.1 g (0.1 ml for 6), water bath 70° C.
# Method: as §1, §2, §3
# Polymerization of Vinyl Acetate at 70° C. in the presence of Nitroxide Inhibitors.
# [3] = Polymerization of methyl acrylate at 70° C. with benzoyl peroxide in the presence of nitroxide inhibitors; details: methyl acrylate 10 ml, benzoyl peroxide 0.35 g, inhibitor 0.1 g (0.1 ml for 6), water bath 70° C.
# Method: as §1, §2, §3
# Polymerization of Methyl Acrylate at 70° C. in the presence of Nitroxide Inhibitors.
compound,measurement,setting,value
"CC1(C)CC2(CC(C)(C)N1[O])OCCCO2 [Example 1, 1,5-dioxa-9-aza-8,8,10,10-tetramethylspiro[5,5]undec-9-yloxy]",Inhibition Time,[1],40 min
same,Inhibition Time,[2],205 min
same,Inhibition Time,[3],165 min
"CC1(C)CC2(CC(C)(C)N1[O])OCCCO2 [Example 2, 1,5-dioxa-9-aza-8,8,10,10 tetramethylspiro[5,5]undec-9-yloxy]",Inhibition Time,[1],60 min
same,Inhibition Time,[2],145 min
same,Inhibition Time,[3],166 min
COC1CC(C)(C)N(O)C(C)(C)C1 [Inhibitor 3],Inhibition Time,[1],305 min
same,Inhibition Time,[2],>300 min
same,Inhibition Time,[3],>300 min
CC1(C)CCCC(C)(C)N1O [Inhibitor 5],Inhibition Time,[1],60 min
same,Inhibition Time,[2],385 min
same,Inhibition Time,[3],180 min
